Tested on: neonatal subject
Assay: Clinical assessments of the neonatal subject (physical/neurologic exam, CHOP INTEND, HINE-2, Bayley-4, OrSAT, ultrasound)
Assay type: in vivo, human
Conditions: for CHOP INTEND: highest possible score 64; for Oral-motor assessment (OrSAT): maximum score 7
Protocol: Following birth, the neonatal subject, approximately one week and again at approximately six weeks of age, was assessed using the Hammersmith Infant Neurological Exam (HINE), Bayley Scales of Infant and Toddler Development, 4th edition (“Bayley™-4), the Children's Hospital of” Philadelphia Infant Test of Neuromuscular Disorders (CHOP INTEND), the Oral and Swallowing Abilities Tool (OrSAT), respiratory inductance plethysmography (RIP), a complete physical examination, anthropometric measurements (including vital signs, length, weight, head circumference and chest circumference), nerve conduction testing (specifically compound muscle action potential (CMAP) and motor unit number estimation (MUNE)), an ultrasound of the brain and muscles, blood and urine collection for CBC, CMP, U/A, and risdiplam PK/PD. The CBC, CMP, and U/A could be repeated at six weeks if the neonatal subject had not initiated any SMN-directed therapies, if there was a clinical indication upon physical examination, or if the one-week labs had clinically significant abnormal results.
The maximum score for the HINE-2 is 26 points, with a higher score reflecting a higher function, respectively.
Bayley™-4 is a comprehensive assessment tool for determining developmental delays in high-risk neonatal subjects. See Bayley & Aylward (2019) Bayley Scales of Infant and Toddler Development (4th ed.) technical manual. Bloomington, MN: NCS Pearson. Bayley™-4 scores from an assessment of early childhood development. Specifically, Bayley™-4 tests developmental skills such as cognitive, language, and motor skills of the neonatal subject. The scores represent how well the neonatal subject performed in these areas as compared to a group of neonatal subjects in the same age range. The Bayley™-4 mean standard score is 100 and the standard deviation is 15.
In Table 6, “CHOP INTEND” refers to a test that provides information about how strong the neonatal subject's muscles are and how well the neonatal subject can control his/her muscles. During the CHOP INTEND examination, a health care provider measures 16 types of muscle movements, which include head control (keeping the head upright), elbow flexion and knee extension (bending the joints), arm and leg mobility, and handgrip. […] All of the CHOP INTEND scores add up to one total score, with the highest possible score for the CHOP INTEND test being 64. With a score of 50 at 6 weeks and a score of 55 at 18 weeks, the neonatal subject was considered to be normal.
“OrSAT” or “Oral and Swallowing Abilities Tool” is a tool specifically designed to record structured information on different aspects related to oral, swallowing and feeding abilities in patients with type 1 SMA. See Berti (2022) Arch. Dis. Child. archdischild-2022-323899. Specifically, OrSAT includes several questions, where the responses are graded using a scoring system: each item is scored as 0 or 1 depending if the patient is able or unable to perform a given activity. Since some items are age-dependent, the number of items and the maximal score increases with an increasing age. If the neonatal subject younger than 6 months of age who cannot be assessed on swallowing semisolids or solids, the maximum score is 7, whereas if the neonatal subject is between 6 and 9 months of age, who can be assessed on this criteria, the maximum score is 10. If the neonatal subject is 10 months of age or older and can be assessed for all food consistencies, including solids, the maximum total score is 12. See Berti (2021) J. Neuromuscul. Dis. 8(4):589-601.
Muscle ultrasound was performed using a 11-mHz-linear array transducer (60 mm width) in B-mode (GE Vivid E95; GE, Chicago, IL, USA) to evaluate for muscle fasciculation in the right and left biceps, the abductor digiti minimi muscle, the quadriceps, the transverse abdominal muscle, the gastrocnemius-soleus, the lumbar paraspinals and the tongue. Thickness of the quadriceps muscle was measured. […]

Cc1cn2nc(-c3cc(=O)n4cc(N5CCNC6(CC6)C5)ccc4n3)cc(C)c2n1 [risdiplam, 7-(4,7-diazaspiro[2.5]octan-7-yl)-2-(2,8-dimethylimidazo[1,2-b]pyridazin-6-yl)-4H-pyrido[1,2-a]pyrimidin-4-one]
Ultrasound studies Neurosonogram Muscle (1 week): normal
General Physical Exam (1 week to 18 weeks): Heart murmur (VSD)
Neurologic Exam (1 week to 18 weeks): Normal, age-appropriate tone, posture,
CHOP INTEND (1 week): 46
Oral-motor assessment (OrSAT) (1 week): 7
Mental status (2 weeks to 2 months): Somnolent and fussy
Ultrasound studies Neurosonogram Muscle (6 weeks): normal
CHOP INTEND (6 weeks): 50
Oral-motor assessment (OrSAT) (6 weeks): 7
Bayley-4 Adaptive Behavior (18 weeks): Behavior: 89
Bayley-4 Cognitive (18 weeks): Cognitive: 95
Bayley-4 Communication (18 weeks): Communication: 103
Bayley-4 Social (18 weeks): Social: 95
Ultrasound studies Neurosonogram Muscle (18 weeks): normal
Oral-motor assessment (OrSAT) (18 weeks): 7
HINE-2 (18 weeks, maximum score 26): 8
Bayley-4 Motor (18 weeks, mean standard score 100, SD 15): Motor: 101
APGAR score (1 minute): APGAR scores: 7
APGAR score (5 minutes): minute), 8 (5 minutes)
Growth (weight gain) (after 2 months): Normal after
Mental status (after 2 months): Normal after
General Physical Exam (birth to 1 week): Respiratory distress
Mental status (birth to 1 week): Normal
Neurologic Exam (birth to 1 week): Normal, age- appropriate
Ultrasound studies Neurosonogram Muscle (birth to 1 week (DOL2)): normal DOL2
